Experiments:
replicon cells = experiment: Cytotoxicity MTS assay (CellTiter 96 Aqueous One Solution) in replicon cells; assay type: cell-based; conditions: EDU; read-out: CC50 (EDU) Range
replicon cells (1b-Con1) = experiment: Replicon activity assay (replicon RNA level by real-time RT-PCR, Taqman); assay type: cell-based; conditions: HCV replicon genotype 1b; read-out: EC50 (1b) Range
Procedure, shortened: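 HCV 1b-Con1 replicon cells treated 3 days with 10-point twofold serial dilutions in triplicate (0.5% DMSO, 10% FBS); replicon RNA quantified by Taqman real-time RT-PCR normalised to GAPDH, EC50 derived. Cytotoxicity by MTS read-out at day 3 on identically treated cells.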

Row | Structure (SMILES) | CC50 (replicon cells) [µM] | EC50 (replicon cells (1b-Con1)) [µM]
1 | C#C[C@@]1(O)[C@@H]2OP(=O)(OCCC(C)C(=O)OC(C)C)OC[C@H]2O[C@H]1n1ccc(=O)[nH]c1=O (stereo partly shown) [Compound 7B] | > 50 | ≤ 0.25
2 | CC(C)OC(=O)C(C)CCOP1(=O)OC[C@H]2O[C@@H](n3cnc4c(N)ncnc43)[C@](C)(Cl)[C@@H]2O1 (single isomer, unassigned) [Compound 35B2] | > 50 | ≤ 0.25
3 | CC(C)OC(=O)C(C)CCOP1(=O)OC[C@H]2O[C@@H](n3ccc(=O)[nH]c3=O)[C@](C)(N)[C@@H]2O1 (single isomer, unassigned) [Compound 10B2] | > 50 | > 10
4 | CC(C)OC(=O)C(C)CCOP1(=O)OC[C@H]2O[C@@H](n3ccc(=O)[nH]c3=O)[C@](C)(N)[C@@H]2O1 (single isomer, unassigned) [Compound 10B] | > 50 | > 10
5 | CCOC(=O)C(C)CCOP1(=O)OC[C@H]2O[C@@H](n3ccc(=O)[nH]c3=O)[C@](C)(N)[C@@H]2O1 (single isomer, unassigned) [Compound 5B] | > 50 | > 10
6 | C#C[C@]1(C)[C@@H]2OP(=O)(OCC(C)CC(=O)OC(C)C)OC[C@H]2O[C@H]1n1ccc(=O)[nH]c1=O (single isomer, unassigned) [Compound 6B2] | > 50 | 1 to 10
7 | CC(C)OC(=O)C(CCOP1(=O)OC[C@H]2O[C@@H](n3ccc(=O)[nH]c3=O)[C@](C)(Cl)[C@@H]2O1)C(=O)OC(C)C (stereo partly shown) [Compound 38B] | > 50 | ≤ 0.25
8 | CC(C)OC(=O)C(C)CCOP1(=O)OC[C@H]2O[C@@H](n3ccc(=O)[nH]c3=O)[C@](C)(N)[C@@H]2O1 (single isomer, unassigned) [Compound 10B1] | > 50 | > 10

— patent US20200179428A1, “CYCLIC PHOSPHATE SUBSTITUTED NUCLEOSIDE DERIVATIVES AND METHODS OF USE THEREOF FOR THE TREATMENT OF VIRAL DISEASES” (priority 2016, published 2020)
